The subject of experiment [1] is isolated macaque cardiomyocytes. The experiment in a line: Sarcomeric contraction of field-stimulated (1 Hz) isolated single cardiomyocytes. It is filed as cell-based. The text has this:
In addition to SIV, the chemokines CCL3, CCL4, and CCL5 can also bind to CCR5 and initiate signaling pathways. In order to evaluate the ability of CCL5 to alter sarcomeric contraction in a CCR5-dependent manner, isolated single cardiomyocytes were field stimulated (1 Hz) and sarcomeric contraction measured over time.

Experiment [2] shares this test system. Kind of experiment: Calcium transient amplitude in isolated cardiomyocytes. It is filed as cell-based. The settings on record: FIG. 1E, ANOVA P=0.72.
In experiment [3] the test system is SIV/17E-Fr and SIV/DeltaB670. The experiment in a line: SIV-infected rhesus macaques: survival, CD4+ cell count and viral loads. It is filed as in vivo. The text has this: Twenty-two adult rhesus macaques (mean age=11 years) pre-screened for SIV, STLV-1, and simian type D retrovirus were inoculated intravenously with the macrophagetropic clone SIV/17E-Fr and the immunosuppressive swarm SIV/DeltaB670 (FIG. 3). Age-matched adult rhesus macaques (mean age=11 years) were inoculated with media alone as controls. […] At euthanasia, all animals were perfused with saline to remove blood from the systemic vasculature. Hearts were immediately harvested and samples were immersion fixed in Streck Tissue Fixative (Streck, Omaha, Nebr.) or flash frozen.

For experiment [4], the system named is CD68+ macrophages and CD163 expression in the myocardium. Kind of experiment: Immunostaining for macrophage markers CD68 and CD163 in myocardium. The format is in vivo, rhesus macaques. The settings on record: SIV-infected macaques, FIG. 8. The text has this: To characterize the mononuclear cell populations in myocardium, sections were immunostained for the macrophage marker CD68 and measured by quantitative image analysis. In uninfected animals, CD68+ immunostaining localized to single, round cells located diffusely throughout the myocardium with increased numbers around vessels, consistent with resident macrophages. In SIV-infected animals, CD68+macrophages in perivascular areas were more prominent, likely reflecting recruited, infiltrating macrophages. […] Myocardium was also immunostained for the macrophage marker CD 163. […] In control animals, spindle shaped CD163+ cells were present diffusely throughout the myocardium occasionally forming small clusters. In SIV-infected macaques, cells were similarly spindle shaped to stellate with more extensive cellular processes. […] Myocardial CD163 immunostaining was highly correlated with CD68 immunostaining.

Experiment [5] concerns SIV/17E-Fr and SIV/DeltaB670. Kind of experiment: SIV RNA levels in plasma, CSF, spleen and brain by qRT-PCR. The format is in vivo, rhesus macaques. The settings on record: 200 mg PO BID from day 24 to day 180 post-inoculation. Here is the method: (§1) To determine whether the CCR5 antagonist maraviroc altered CNS disease progression, SIV-infected animals from were treated with maraviroc and CNS outcomes were compared with untreated SIV-infected animals. Specifically, six rhesus macaques were inoculated with SIV/17E-Fr and SIV/DeltaB670 and treated with maraviroc (200 mg PO BID) beginning 24 days post-inoculation until the study endpoint 180 days postinoculation, 22 SIV-infected animals served as untreated, SIV-infected controls, and 8 additional animals served as untreated, uninfected controls (Example 2). Maraviroc levels in plasma and CSF were measured using liquid chromatography tandem mass spectrometry. SIV RNA levels in plasma, CSF, spleen, and brain were measured by qRT-PCR. Immunostaining for CD68 and amyloid precursor protein (APP) in the brain was measured by digital image analysis. Group comparisons were performed by the Mann-Whitney test.
Background: Real-time PCR tracks product formation cycle by cycle.

The test system of experiment [6] is CD68 and amyloid precursor protein (APP) in the brain. The experiment in a line: Immunostaining for CD68 and amyloid precursor protein (APP) in the brain. The format is in vivo, rhesus macaques. To be noted: 200 mg PO BID. Here is the method:
as §1

Experiment [7] deals with SIV-infected macaques. To be noted: echocardiography, FIG. 7.
The mark [8] stands for this setting: SIV-infected macaques, 40 mg/kg orally twice per day.
Setting [9] is: versus untreated SIV-infected macaques.

As for “4,4-difluoro-N-{(1S)-3-[exo-3-(3-isopropyl-5-methyl-4H-1,2,4-triazol-4-yl)-8-azabicyclo[3.2.1]oct-8-yl]-1-phenylpropyl}cyclohexanecarboxamide [maraviroc]”, the “effect on the induced reduction in sarcomeric contraction” value in experiment [1] (addition after CCL5, FIG. 1A-1C) is “reversed”. Also, the “difference in shortening between baseline and treatment” value in experiment [1] (after CCL5, P=0.72) is recorded as “no significant difference”. For the same molecule, in experiment [1] (subsequent addition in the same cells, FIG. 1D), the “effect on the CCL5-induced decrease in sarcomeric shortening” value was “modulated the CCL5 effect towards basal contraction”. Further, the calcium transient amplitude result in experiment [2] (RANTES+MVC treatment) is “not altered”. Further, the “outcomes (CSF, plasma, spleen, heart viral load) versus rapid (RP) and long term progression (LTP) groups” value in experiment [3] (FIG. 6, LTP over 180 days post-SIV inoculation) is “improves outcomes in both RP and LTP groups”. Besides, in experiment [3] (setting [8]), the “CD4+ cell counts” value is reported as “increased”, the “survival relative to the untreated cohort” value is given as “significantly increased”, the “viral load in CSF” value was “reduced” and the “viral load in heart” value is reported as “reduced”. Moreover, in experiment [3] (setting [8]), the “viral load in plasma” value is “reduced” and the “viral load in spleen” value is reported as “reduced”. In experiment [4], the “CD68+ macrophage level in myocardium” value was “do not change”; the “CD163 expression by macrophages in myocardium” value is “lowered to levels present in uninfected and untreated subjects”. For the same molecule, in experiment [5], the “SIV RNA levels in spleen” value was “reduced” and the plasma viral load entry was “reduced”. In experiment [5] (setting [9]), the “SIV RNA levels in CSF” value is “significantly lower” and the “SIV RNA levels in brain” value is “significantly lower”. In addition, the “CNS macrophage activation represented by CD68 immunostaining” value in experiment [6] (P<0.001, FIG. 10) is “lowered”. Moreover, the “axonal APP immunostaining” value in experiment [6] (P=0.003, FIG. 10) is recorded as “lowered”. In addition, in experiment [7], the “mitral inflow parameters consistent with diastolic dysfunction with impaired relaxation” value is on record as “significantly ameliorated”.

B1: CCL5: specific chemokine ligand that can bind to CCR5 and initiate signaling pathways (protein, UniProt P13501 24-91, looked up)
C-C motif chemokine 5: SPYSSDTTPCCFAYIARPLPRAHIKEYFYTSGKCSNPAVVFVTRKNRQVCANPEKKWVREYINSLEMS
Take B1: the sarcomeric shortening result in experiment [1] (14 VCM, mean of 20 contraction cycles/cell at steady state, FIG. 1D, p<0.001) is “significantly decreased”. Moreover, the “mean % decline in contraction from baseline contraction length” value in experiment [1] (isolated macaque cardiomyocytes, FIG. 1C, P=0.009) turned out to be 22%. In addition, the calcium transient amplitude entry in experiment [2] (RANTES treatment) is given as “not altered”.

The values above are taken from patent publication US20140057940A1, “Methods for Treating or Preventing Cardiac and Neurological Disorders Using Chemokine Receptor Antagonists” (priority 2011, published 2014).
